# Experimental data as given in ChEMBL document CHEMBL3046559, “Sterile oat (Avena sterilis L.) cross-resistance profile to ACCase-inhibiting herbicides in Greece” (2012).
# Test system: Avena sterilis
# Assay: Resistance index, ratio of GR50 for Avena sterilis accession P02 to GR50 for Avena sterilis accession P10S
# Type: functional
row,SMILES,Ratio
1,C#CCOC(=O)[C@@H](C)Oc1ccc(Oc2ncc(Cl)cc2F)cc1 [CLODINAFOP PROPARGYL],>164

# Test system: Avena sterilis
# Assay: Resistance index, ratio of GR50 for Avena sterilis accession P05 to GR50 for Avena sterilis accession P10S
# Type: functional
row,SMILES,Ratio
1,C#CCOC(=O)[C@@H](C)Oc1ccc(Oc2ncc(Cl)cc2F)cc1 [CLODINAFOP PROPARGYL],22

# Test system: Avena sterilis
# Assay: Resistance index, ratio of GR50 for Avena sterilis accession P06S to GR50 for Avena sterilis accession P10S
# Type: functional
row,SMILES,Ratio
1,C#CCOC(=O)[C@@H](C)Oc1ccc(Oc2ncc(Cl)cc2F)cc1 [CLODINAFOP PROPARGYL],1.1

# Test system: Avena sterilis
# Assay: Resistance index, ratio of GR50 for Avena sterilis accession P12 to GR50 for Avena sterilis accession P10S
# Type: functional
row,SMILES,Ratio
1,C#CCOC(=O)[C@@H](C)Oc1ccc(Oc2ncc(Cl)cc2F)cc1 [CLODINAFOP PROPARGYL],>164

# Test system: Avena sterilis
# Assay: Resistance index, ratio of GR50 for Avena sterilis accession P20 to GR50 for Avena sterilis accession P10S
# Type: functional
row,SMILES,Ratio
1,C#CCOC(=O)[C@@H](C)Oc1ccc(Oc2ncc(Cl)cc2F)cc1 [CLODINAFOP PROPARGYL],63

# Test system: Avena sterilis
# Assay: Resistance index, ratio of GR50 for Avena sterilis accession P09 to GR50 for Avena sterilis accession P10S
# Type: functional
row,SMILES,Ratio
1,C#CCOC(=O)[C@@H](C)Oc1ccc(Oc2ncc(Cl)cc2F)cc1 [CLODINAFOP PROPARGYL],6

# Test system: Avena sterilis
# Assay: Resistance index, ratio of GR50 for Avena sterilis accession P13S to GR50 for Avena sterilis accession P10S
# Type: functional
row,SMILES,Ratio
1,C#CCOC(=O)[C@@H](C)Oc1ccc(Oc2ncc(Cl)cc2F)cc1 [CLODINAFOP PROPARGYL],0.6

# Test system: Avena sterilis
# Assay: Resistance index, ratio of GR50 for Avena sterilis accession P19S to GR50 for Avena sterilis accession P10S
# Type: functional
row,SMILES,Ratio
1,C#CCOC(=O)[C@@H](C)Oc1ccc(Oc2ncc(Cl)cc2F)cc1 [CLODINAFOP PROPARGYL],3.6

# Test system: Avena sterilis
# Assay: Resistance index, ratio of GR50 for Avena sterilis accession P17 to GR50 for Avena sterilis accession P10S
# Type: functional
row,SMILES,Ratio
1,C#CCOC(=O)[C@@H](C)Oc1ccc(Oc2ncc(Cl)cc2F)cc1 [CLODINAFOP PROPARGYL],35

# Test system: Avena sterilis
# Assay: Herbicidal activity against Avena sterilis accession P14 assessed as weed survival at 8 times field recommended herbicide dose
# Type: functional
row,SMILES,Survival
1,C#CCOC(=O)[C@@H](C)Oc1ccc(Oc2ncc(Cl)cc2F)cc1 [CLODINAFOP PROPARGYL],80%

# Test system: Avena sterilis
# Assay: Herbicidal activity against Avena sterilis accession P14 assessed as weed survival at 16 times field recommended herbicide dose
# Type: functional
row,SMILES,Survival
1,C#CCOC(=O)[C@@H](C)Oc1ccc(Oc2ncc(Cl)cc2F)cc1 [CLODINAFOP PROPARGYL],77%

# Test system: Avena sterilis
# Assay: Herbicidal activity against Avena sterilis accession P21S assessed as induction of weed mortality
# Type: functional
row,SMILES,GR50
1,C#CCOC(=O)[C@@H](C)Oc1ccc(Oc2ncc(Cl)cc2F)cc1 [CLODINAFOP PROPARGYL],11 gAi/ha

# Test system: Avena sterilis
# Assay: Resistance index, ratio of GR50 for Avena sterilis accession P16 to GR50 for Avena sterilis accession P10S
# Type: functional
row,SMILES,Ratio
1,C#CCOC(=O)[C@@H](C)Oc1ccc(Oc2ncc(Cl)cc2F)cc1 [CLODINAFOP PROPARGYL],21

# Test system: Avena sterilis
# Assay: Resistance index, ratio of GR50 for Avena sterilis accession P15 to GR50 for Avena sterilis accession P10S
# Type: functional
row,SMILES,Ratio
1,C#CCOC(=O)[C@@H](C)Oc1ccc(Oc2ncc(Cl)cc2F)cc1 [CLODINAFOP PROPARGYL],>164

# Test system: Avena sterilis
# Assay: Herbicidal activity against Avena sterilis accession P13S assessed as weed survival at 1/16 times field recommended herbicide dose
# Type: functional
row,SMILES,Survival
1,C#CCOC(=O)[C@@H](C)Oc1ccc(Oc2ncc(Cl)cc2F)cc1 [CLODINAFOP PROPARGYL],70%

# Test system: Avena sterilis
# Assay: Resistance index, ratio of GR50 for Avena sterilis accession P11 to GR50 for Avena sterilis accession P10S
# Type: functional
row,SMILES,Ratio
1,C#CCOC(=O)[C@@H](C)Oc1ccc(Oc2ncc(Cl)cc2F)cc1 [CLODINAFOP PROPARGYL],>164

# Test system: Avena sterilis
# Assay: Resistance index, ratio of GR50 for Avena sterilis accession P22 to GR50 for Avena sterilis accession P10S
# Type: functional
row,SMILES,Ratio
1,C#CCOC(=O)[C@@H](C)Oc1ccc(Oc2ncc(Cl)cc2F)cc1 [CLODINAFOP PROPARGYL],15

# Test system: Avena sterilis
# Assay: Resistance index, ratio of GR50 for Avena sterilis accession P04 to GR50 for Avena sterilis accession P10S
# Type: functional
row,SMILES,Ratio
1,C#CCOC(=O)[C@@H](C)Oc1ccc(Oc2ncc(Cl)cc2F)cc1 [CLODINAFOP PROPARGYL],>164

# Test system: Avena sterilis
# Assay: Resistance index, ratio of GR50 for Avena sterilis accession P03 to GR50 for Avena sterilis accession P10S
# Type: functional
row,SMILES,Ratio
1,C#CCOC(=O)[C@@H](C)Oc1ccc(Oc2ncc(Cl)cc2F)cc1 [CLODINAFOP PROPARGYL],>164

# Test system: Avena sterilis
# Assay: Resistance index, ratio of GR50 for Avena sterilis accession P21S to GR50 for Avena sterilis accession P10S
# Type: functional
row,SMILES,Ratio
1,C#CCOC(=O)[C@@H](C)Oc1ccc(Oc2ncc(Cl)cc2F)cc1 [CLODINAFOP PROPARGYL],1.4

# Test system: Avena sterilis
# Assay: Herbicidal activity against Avena sterilis accession P17 assessed as weed survival at 32 times field recommended herbicide dose
# Type: functional
row,SMILES,Survival
1,C#CCOC(=O)[C@@H](C)Oc1ccc(Oc2ncc(Cl)cc2F)cc1 [CLODINAFOP PROPARGYL],20%

# Test system: Avena sterilis
# Assay: Herbicidal activity against Avena sterilis accession P10S assessed as weed survival at 1/8 times field recommended herbicide dose
# Type: functional
row,SMILES,Survival
1,C#CCOC(=O)[C@@H](C)Oc1ccc(Oc2ncc(Cl)cc2F)cc1 [CLODINAFOP PROPARGYL],77%

# Test system: Avena sterilis
# Assay: Resistance index, ratio of GR50 for Avena sterilis accession P18 to GR50 for Avena sterilis accession P10S
# Type: functional
row,SMILES,Ratio
1,C#CCOC(=O)[C@@H](C)Oc1ccc(Oc2ncc(Cl)cc2F)cc1 [CLODINAFOP PROPARGYL],64

# Test system: Avena sterilis
# Assay: Resistance index, ratio of GR50 for Avena sterilis accession P14 to GR50 for Avena sterilis accession P10S
# Type: functional
row,SMILES,Ratio
1,C#CCOC(=O)[C@@H](C)Oc1ccc(Oc2ncc(Cl)cc2F)cc1 [CLODINAFOP PROPARGYL],150

# Test system: Avena sterilis
# Assay: Resistance index, ratio of GR50 for Avena sterilis accession P08 to GR50 for Avena sterilis accession P10S
# Type: functional
row,SMILES,Ratio
1,C#CCOC(=O)[C@@H](C)Oc1ccc(Oc2ncc(Cl)cc2F)cc1 [CLODINAFOP PROPARGYL],>164

# Test system: Avena sterilis
# Assay: Resistance index, ratio of GR50 for Avena sterilis accession P01 to GR50 for Avena sterilis accession P10S
# Type: functional
row,SMILES,Ratio
1,C#CCOC(=O)[C@@H](C)Oc1ccc(Oc2ncc(Cl)cc2F)cc1 [CLODINAFOP PROPARGYL],130
